Results published in patent publication US10294202B2, “Pyrrolidinones as herbicides” (FMC Corporation, priority 2013, dated 2019).

Key:
foxtail, giant = assay: Test C pre-/postemergence herbicide test; assay type: in vivo, Setaria faberii
In short: (§1)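 Greenhouse pots; formulation = non-phytotoxic solvent mix + surfactant. PRE onto seeds in loam:sand; POST at 1–4 leaves (2–18 cm) in peat moss/vermiculite medium. Read-out: visual % control vs untreated, day 13–15.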

rice = assay: Test C flooded paddy test; assay type: in vivo, Oryza sativa; conditions: Flood, scale of 0 to 100 where 0 is no effect and 100 is complete control, 13 to 15 days
In short: (§2)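 Ratings reflect visual comparison with controls on a 0–100 scale, where 100 is complete control. Compound is dosed into standing paddy water 3 cm deep over 2-leaf-stage plants, kept in the greenhouse 13 to 15 days.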

morningglory = assay: Test C pre-/postemergence herbicide test; assay type: in vivo, Ipomoea coccinea
In short: as §1

oat, wild = assay: Test C pre-/postemergence herbicide test; assay type: in vivo, Avena fatua; conditions: Postemergence
In short: as §1

blackgrass = assay: Test A postemergence herbicide test; assay type: in vivo, Alopecurus myosuroides; conditions: for Plant response rating, Blackgrass: 125 g ai/ha, 0 to 100 scale, 0 is no effect, 100 is complete control; for Blackgrass plant response rating (0 to 100 scale, 0 is no effect, 100 is complete control): 500 g ai/ha
In short: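 Visual injury rating, 0 (no effect) to 100 (complete control), versus untreated controls ~10 days after treatment. Postemergence spray applied at one- to two-leaf stage, plants 2–10 cm tall, potted in loam soil/sand. Greenhouse-held.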

galium = assay: Test C pre-/postemergence herbicide test; assay type: in vivo, Galium aparine
In short: as §1

pigweed = assay: Test A pre-/postemergence herbicide test; assay type: in vivo, Amaranthus retroflexus; conditions: for Plant response rating, Pigweed: 0 to 100 scale
In short: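 Greenhouse pot test with pre- and postemergence application of surfactant-containing solvent formulations. Postemergence plants were 2–10 cm, one- to two-leaf stage. Response scored visually after ~10 days, 0 (no effect) to 100 (complete control).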

kochia = assay: Test C pre-/postemergence herbicide test; assay type: in vivo, Kochia scoparia; conditions: Postemergence
In short: as §1

barnyardgrass = assay: Test C flooded paddy test; assay type: in vivo, Echinochloa crus-galli; conditions: Flood, scale of 0 to 100 where 0 is no effect and 100 is complete control, 13 to 15 days
In short: as §2

[1] = Postemergence, 31 g ai/ha, scale 0 to 100 (0 no effect, 100 complete control)
[2] = Postemergence, 62 g ai/ha, scale 0 (no effect) to 100 (complete control)
[3] = Postemergence, 125 g ai/ha, scale 0 to 100 (0 no effect, 100 complete control)
[4] = Postemergence, 250 g ai/ha, scale 0 to 100 (0 no effect, 100 complete control)
[5] = Preemergence, 31 g ai/ha, scale 0 to 100, 0 is no effect and 100 is complete control
[6] = Preemergence, 62 g ai/ha, scale 0 to 100 (0 no effect, 100 complete control)
[7] = Preemergence, 125 g ai/ha, scale 0 to 100 (0 no effect, 100 complete control)
[8] = 31 g ai/ha, scale 0 to 100 (0 no effect, 100 complete control)
[9] = 62 g ai/ha, scale 0 (no effect) to 100 (complete control)
[10] = 125 g ai/ha, scale 0 to 100 (0 no effect, 100 complete control)
[11] = 250 g ai/ha, scale 0 to 100 (0 no effect, 100 complete control)
[12] = 125 g ai/ha, visual rating, 0 no effect, 100 complete control, approximately 10 days, preemergence
[13] = Postemergence, 125 g ai/ha, 0 is no effect, 100 is complete control
[14] = preemergence, 500 g ai/ha, 0 is no effect and 100 is complete control

O=C1NCC(c2cccc(OC(F)F)c2)C1C(=O)Nc1ccccc1F (centres unmarked) [Compound 223]
Plant response rating, Foxtail, Giant (foxtail, giant; [1]): 0
Plant response rating, Foxtail, Giant (foxtail, giant; [2]): 35
Plant response rating, Foxtail, Giant (foxtail, giant; [3]): 30
Plant response rating, Foxtail, Giant (foxtail, giant; [4]): 35
Foxtail, Giant plant response rating (foxtail, giant; [5]): 70
Foxtail, Giant plant response rating (foxtail, giant; [6]): 85
Plant response rating, Foxtail, Giant (foxtail, giant; [7]): 90
Plant response rating (scale of 0 to 100), Foxtail, Giant (foxtail, giant; Preemergence, 250 g ai/ha): 98
Plant response rating, Rice (rice; 31 g ai/ha): 0
Plant response rating, Rice (rice; 62 g ai/ha): 0
Plant response rating, Rice (rice; 125 g ai/ha): 0
Plant response rating, Rice (rice; 250 g ai/ha): 0
Plant response rating, Morningglory (morningglory; [1]): 0
Plant response rating, Morningglory (morningglory; [2]): 0
Plant response rating, Morningglory (morningglory; [3]): 0
Plant response rating, Morningglory (morningglory; [4]): 35
Morningglory plant response rating (morningglory; [5]): 0
Morningglory plant response rating (morningglory; [6]): 0
Plant response rating, Morningglory (morningglory; [7]): 10
Plant response rating (scale of 0 to 100), Morningglory (morningglory; Preemergence, 250 g ai/ha): 20
Plant response rating, Oat, Wild (oat, wild; [8]): 0
Plant response rating, Oat, Wild (oat, wild; [9]): 0
Plant response rating, Oat, Wild (oat, wild; [10]): 0
Plant response rating, Oat, Wild (oat, wild; [11]): 0
Plant response rating, Blackgrass (blackgrass): 60
Blackgrass plant response rating (0 to 100 scale, 0 is no effect, 100 is complete control) (blackgrass): 70
Plant response rating, Galium (galium; [1]): 5
Plant response rating, Galium (galium; [2]): 5
Plant response rating, Galium (galium; [3]): 45
Plant response rating, Galium (galium; [4]): 70
Galium plant response rating (galium; [5]): 0
Galium plant response rating (galium; [6]): 0
Plant response rating, Galium (galium; [7]): 90
Plant response rating (scale of 0 to 100), Galium (galium; Preemergence, 250 g ai/ha): 90
Plant response rating, Pigweed (pigweed; [12]): 20
Plant response rating, Pigweed (pigweed; [13]): 40
Pigweed plant response rating (0 to 100 scale, 0 is no effect, 100 is complete control) (pigweed; Postemergence, 500 g ai/ha): 60
Plant response rating, Pigweed (pigweed; [14]): 50
Plant response rating, Kochia (kochia; [8]): 0
Plant response rating, Kochia (kochia; [9]): 5
Plant response rating, Kochia (kochia; [10]): 30
Plant response rating, Kochia (kochia; [11]): 60
Plant response rating, Barnyardgrass (barnyardgrass; 31 g ai/ha): 0
Plant response rating, Barnyardgrass (barnyardgrass; 62 g ai/ha): 0
Plant response rating, Barnyardgrass (barnyardgrass; 125 g ai/ha): 0
Plant response rating, Barnyardgrass (barnyardgrass; 250 g ai/ha): 0

O=C1NCC(c2ccc(C(F)(F)F)cc2)C1C(=O)Nc1ccc(F)c(F)c1F (centres unmarked) [Compound 232]
Plant response rating, Foxtail, Giant (foxtail, giant; [1]): 0
Plant response rating, Foxtail, Giant (foxtail, giant; [2]): 5
Plant response rating, Foxtail, Giant (foxtail, giant; [3]): 15
Plant response rating, Foxtail, Giant (foxtail, giant; [4]): 70
Foxtail, Giant plant response rating (foxtail, giant; [5]): 85
Foxtail, Giant plant response rating (foxtail, giant; [6]): 90
Plant response rating, Foxtail, Giant (foxtail, giant; [7]): 90
Plant response rating (scale of 0 to 100), Foxtail, Giant (foxtail, giant; Preemergence, 250 g ai/ha): 95
Plant response rating, Rice (rice; 31 g ai/ha): 0
Plant response rating, Rice (rice; 62 g ai/ha): 0
Plant response rating, Rice (rice; 125 g ai/ha): 0
Plant response rating, Rice (rice; 250 g ai/ha): 15
Plant response rating, Morningglory (morningglory; [1]): 15
Plant response rating, Morningglory (morningglory; [2]): 0
Plant response rating, Morningglory (morningglory; [3]): 25
Plant response rating, Morningglory (morningglory; [4]): 60
Morningglory plant response rating (morningglory; [5]): 0
Morningglory plant response rating (morningglory; [6]): 15
Plant response rating, Morningglory (morningglory; [7]): 15
Plant response rating (scale of 0 to 100), Morningglory (morningglory; Preemergence, 250 g ai/ha): 20
Plant response rating, Oat, Wild (oat, wild; [8]): 0
Plant response rating, Oat, Wild (oat, wild; [9]): 0
Plant response rating, Oat, Wild (oat, wild; [10]): 0
Plant response rating, Oat, Wild (oat, wild; [11]): 30
Plant response rating, Blackgrass (blackgrass): 50
Blackgrass plant response rating (0 to 100 scale, 0 is no effect, 100 is complete control) (blackgrass): 50
Plant response rating, Galium (galium; [1]): 75
Plant response rating, Galium (galium; [2]): 80
Plant response rating, Galium (galium; [3]): 80
Plant response rating, Galium (galium; [4]): 80
Galium plant response rating (galium; [5]): 85
Galium plant response rating (galium; [6]): 85
Plant response rating, Galium (galium; [7]): 90
Plant response rating (scale of 0 to 100), Galium (galium; Preemergence, 250 g ai/ha): 90
Plant response rating, Pigweed (pigweed; [12]): 50
Plant response rating, Pigweed (pigweed; [13]): 80
Pigweed plant response rating (0 to 100 scale, 0 is no effect, 100 is complete control) (pigweed; Postemergence, 500 g ai/ha): 90
Plant response rating, Pigweed (pigweed; [14]): 60
Plant response rating, Kochia (kochia; [8]): 60
Plant response rating, Kochia (kochia; [9]): 70
Plant response rating, Kochia (kochia; [10]): 70
Plant response rating, Kochia (kochia; [11]): 75
Plant response rating, Barnyardgrass (barnyardgrass; 31 g ai/ha): 0
Plant response rating, Barnyardgrass (barnyardgrass; 62 g ai/ha): 30
Plant response rating, Barnyardgrass (barnyardgrass; 125 g ai/ha): 40
Plant response rating, Barnyardgrass (barnyardgrass; 250 g ai/ha): 60
